Measurements: patent publication US12472177B2, “Bicyclic compounds and methods for their use in treating Pitt Hopkins syndrome” (NEUREN PHARMACEUTICALS LIMITED, priority 2019, dated 2025)

Experiments:
Format in all cases: in vivo, mouse
Tcf4^+/− mice [1] = experiment: Nest building (test of daily living)
Experimental: (§1) In vivo behavioral studies were conducted in Tcf4^+/− mutant and wildtype littermate control (WT) mice by Gen.DDI (Santiago, Chile). Littermate controls consist of the genotypes Tcf4^+/+. All Tcf4 mutant mice used were heterozygous for the Tcf4 mutation because homozygous mutations of Tcf4 result in embryonic to postnatal day 1 lethality. Ten mice per treatment group, 14 weeks of age, were used for behavioral experiments. Experiments were conducted in line with the requirements of the UK Animals (Scientific Procedures) Act, 1986. The mice were housed in plastic cages (35×30×12 cm), 5 in each and habituated to the animal facilities for at least a week before commencing the test. The room temperature (21° C.±2° C.), relative humidity (55%±5%), a 12-hour light-dark cycle (lights on 7 AM to 7 PM), and air exchange were automatically controlled. The animals had free access to commercial food pellets and water. Testing was performed during the light phase of the circadian cycle, with the order of testing being determined by the principle of conducting the most stressful tests last. Assays were designed to reproduce and expand on the original behavioral characterization of Tcf4^+/− mice. Tcf4^+/− and WT control mice were treated for 6 weeks prior to testing and tested 30 minutes following a dose of cG-2-AllylP, as described in Table 2 below.
Nest building is an activity needed for mice to raise their offspring and is an indicator of social adaptation and activities of daily living. Tcf4^+/− mice build nests of substantially lower quality than wild type mice. Therefore, to determine if NNZ-2591 (cG-2-AllylP) might restore the quality of nest building, we carried out a series of studies.

Tcf4^+/− mice [2] = experiment: Self grooming (repetitive behavior); design: key to Self-Grooming/Repetitive Behavior: Tukey’s Multiple Comparison Test Summary: **** = p < 0.00001; ns = not significant
Experimental: as §1
Repetitive self-grooming is a feature of mice. Tcf4^+/− mice show an increased amount of self-grooming compared to wild type mice. To see if NNZ-2591 (cG-2-AllylP) can normalize self-grooming behavior in Tcf4^+/− mice, we carried out a series of studies, as shown in FIG. 3.
The amount of time spent grooming in seconds during a 10-minute test period is shown on the vertical axis, and the animals and treatments are shown on the horizontal axis. Wild type (WT) mice treated with vehicle alone (left column) self-groomed for about 110 sec. […] This difference was not statistically significant. […] This statistically significant finding was completely unexpected in Tcf4^+/− mice.

Tcf4^+/− mice [3] = experiment: Open field (hypoactivity, distance travelled); design: key to Open Field (Hypoactivity): Tukey’s Multiple Comparison Test Summary: **** = p < 0.00001; ns = not significant
Experimental: as §1
The Open Field (OF) test is a combined test that is used to determine anxiety/hyperactivity, and for habituation to a novel environment, one of the most elementary forms of learning, in which decreased exploration as a function of repeated exposure to the same environment is taken as an index of memory. This is normally studied in two sessions of exposure to the open field, a 10-min and a 24 hr habituation session.
The device used for this study is a grey PVC enclosed arena 50×30 cm divided into 10 cm squares. Mice are brought to the experimental room 5-20 min before testing. A mouse is placed into a corner square facing the corner and observed for 3 min. The number of squares entered (whole body) and rears (both front paws off the ground, but not as part of grooming) are counted. The latency to the first rear is also noted. The movement of the mouse around the field was recorded with a video tracking device for 300 s (vNT4.0, Viewpoint). The latency for the mouse to enter the brightest, central part of the field total time spent in this central region, and total activity (in terms of path length in centimetres), were recorded.
The open field (OF) test is a test used to characterize explorative behavior, anxiety, and/or hypo- and hyperactivity in animals habituated to daily handling under novel and familiar conditions. During exposure to the open field mice will habituate to the environment and thus explore less, decreasing the amount movement they show over time.
In the present experiment, we recorded movement and rearing during an initial exposure (T1), during a second exposure after 10 minutes (T2) and during a third exposure after 24 hours (T3). Failures to reduce locomotion or rearing at 10 minutes and 24 hours indicate deficits in short- and long-term memory, respectively.
To evaluate whether cG-2-AllylP is effective to treat the hypoactivity in PTHS, we carried out Open Field studies. Lower scores on measures of open field locomotion were detected in Tcf4^+/− as compared to WT littermates, across the 30-minute test session.
The relative distance travelled is shown on the vertical axis, and the animals and their treatments are shown on the horizontal axis. Wild type (WT) mice treated with vehicle alone (left column) were considered to travel 100%. […] The effect of NNZ-2591 (cG-2-AllylP) were statistically significant.

[4] = Tcf4^+/− + cG-2-AllylP (100 mg/kg) vs Tcf4^+/− + cG-2-AllylP (200 mg/kg)
[5] = Tcf4^+/− + cG-2-AllylP (100 mg/kg) vs WT + cG-2-AllylP (200 mg/kg)
[6] = Tcf4^+/− + vehicle vs Tcf4^+/− + cG-2-AllylP (100 mg/kg)
[7] = Tcf4^+/− + vehicle vs Tcf4^+/− + cG-2-AllylP (200 mg/kg)
[8] = Tcf4^+/− + vehicle vs WT + cG-2-AllylP (100 mg/kg)
[9] = Tcf4^+/− + vehicle vs WT + cG-2-AllylP (200 mg/kg)
[10] = Tcf4^+/− mice, 100 mg/kg oral BID 6 weeks
[11] = Tcf4^+/− mice, 200 mg/kg oral BID 6 weeks
[12] = WT + cG-2-AllylP (100 mg/kg) vs Tcf4^+/− + cG-2-AllylP (100 mg/kg)
[13] = WT + cG-2-AllylP (100 mg/kg) vs Tcf4^+/− + cG-2-AllylP (200 mg/kg)
[14] = WT + cG-2-AllylP (100 mg/kg) vs WT + cG-2-AllylP (200 mg/kg)
[15] = WT + cG-2-AllylP (200 mg/kg) vs Tcf4^+/− + cG-2-AllylP (200 mg/kg)
[16] = WT + vehicle vs Tcf4^+/− + cG-2-AllylP (100 mg/kg)
[17] = WT + vehicle vs Tcf4^+/− + cG-2-AllylP (200 mg/kg)
[18] = WT + vehicle vs WT + cG-2-AllylP (100 mg/kg)
[19] = WT + vehicle vs WT + cG-2-AllylP (200 mg/kg)
[20] = WT mice, 100 mg/kg oral BID 6 weeks
[21] = WT mice, 200 mg/kg oral BID 6 weeks

## C=CC[C@]12CCCN1C(=O)CNC2=O [cG-2-AllylP, (8aS)-Allyl-hexahydropyrrolo[1,2-a]pyrazine-1,4-dione]
Tcf4^+/− mice [1]; [4]
  Test of Daily Living: Tukey’s Multiple Comparison Test Summary: ns
Tcf4^+/− mice [1]; [5]
  Test of Daily Living: Tukey’s Multiple Comparison Test Summary: ns
Tcf4^+/− mice [1]; [6]
  Test of Daily Living: Tukey’s Multiple Comparison Test Summary: **** (**** = p < 0.0001)
Tcf4^+/− mice [1]; [7]
  Test of Daily Living: Tukey’s Multiple Comparison Test Summary: **** (**** = p < 0.0001)
Tcf4^+/− mice [1]; [8]
  Test of Daily Living: Tukey’s Multiple Comparison Test Summary: **** (**** = p < 0.0001)
Tcf4^+/− mice [1]; [9]
  Test of Daily Living: Tukey’s Multiple Comparison Test Summary: **** (**** = p < 0.0001)
Tcf4^+/− mice [1]; Tcf4^+/− mice, 100 mg/kg
  Behavior Normalized to WildType Levels: Nesting: ✓
Tcf4^+/− mice [1]; [10]
  Nest building quality (grade of 1-5): normalized the quality of nests to levels nearly identical to WT mice
Tcf4^+/− mice [1]; Tcf4^+/− mice, 200 mg/kg
  Behavior Normalized to WildType Levels: Nesting: ✓
Tcf4^+/− mice [1]; [11]
  Nest building quality (grade of 1-5): normalized the quality of nests to levels nearly identical to WT mice
Tcf4^+/− mice [1]; [12]
  Test of Daily Living: Tukey’s Multiple Comparison Test Summary: ns
Tcf4^+/− mice [1]; [13]
  Test of Daily Living: Tukey’s Multiple Comparison Test Summary: ns
Tcf4^+/− mice [1]; [14]
  Test of Daily Living: Tukey’s Multiple Comparison Test Summary: ns
Tcf4^+/− mice [1]; [15]
  Test of Daily Living: Tukey’s Multiple Comparison Test Summary: ns
Tcf4^+/− mice [1]; [16]
  Test of Daily Living: Tukey’s Multiple Comparison Test Summary: ns
Tcf4^+/− mice [1]; [17]
  Test of Daily Living: Tukey’s Multiple Comparison Test Summary: ns
Tcf4^+/− mice [1]; [18]
  Test of Daily Living: Tukey’s Multiple Comparison Test Summary: ns
Tcf4^+/− mice [1]; [19]
  Test of Daily Living: Tukey’s Multiple Comparison Test Summary: ns
Tcf4^+/− mice [1]; [20]
  Nest building quality (grade of 1-5): nearly identical to those of vehicle-treated WT mice
Tcf4^+/− mice [1]; [21]
  Nest building quality (grade of 1-5): nearly identical to those of vehicle-treated WT mice
Tcf4^+/− mice [2]; [4]
  Self-Grooming/Repetitive Behavior: Tukey’s Multiple Comparison Test Summary: ns
Tcf4^+/− mice [2]; [5]
  Self-Grooming/Repetitive Behavior: Tukey’s Multiple Comparison Test Summary: ns
Tcf4^+/− mice [2]; [6]
  Self-Grooming/Repetitive Behavior: Tukey’s Multiple Comparison Test Summary: **** (**** = p < 0.0001)
Tcf4^+/− mice [2]; [7]
  Self-Grooming/Repetitive Behavior: Tukey’s Multiple Comparison Test Summary: **** (**** = p < 0.0001)
Tcf4^+/− mice [2]; [8]
  Self-Grooming/Repetitive Behavior: Tukey’s Multiple Comparison Test Summary: **** (**** = p < 0.0001)
Tcf4^+/− mice [2]; [9]
  Self-Grooming/Repetitive Behavior: Tukey’s Multiple Comparison Test Summary: **** (**** = p < 0.0001)
Tcf4^+/− mice [2]; Tcf4^+/− mice, 100 mg/kg
  Behavior Normalized to WildType Levels: Self-groom: ✓
Tcf4^+/− mice [2]; Tcf4^+/− mice, 100 mg/kg oral BID 6 weeks, 100 mg/kg
  Time spent self-grooming during a 10-minute test period: corrected
Tcf4^+/− mice [2]; Tcf4^+/− mice, 100 mg/kg oral BID 6 weeks, listed as NNZ-2591, 100 mg/kg
  Time spent self-grooming during a 10-minute test period: about the same amount of time self-grooming as WT vehicle treated mice
Tcf4^+/− mice [2]; Tcf4^+/− mice, 200 mg/kg
  Behavior Normalized to WildType Levels: Self-groom: ✓
Tcf4^+/− mice [2]; Tcf4^+/− mice, 200 mg/kg oral BID 6 weeks, 200 mg/kg
  Time spent self-grooming during a 10-minute test period: corrected
Tcf4^+/− mice [2]; Tcf4^+/− mice, 200 mg/kg oral BID 6 weeks, listed as NNZ-2591, 200 mg/kg
  Time spent self-grooming during a 10-minute test period: about the same amount of time self-grooming as WT vehicle treated mice
Tcf4^+/− mice [2]; [12]
  Self-Grooming/Repetitive Behavior: Tukey’s Multiple Comparison Test Summary: ns
Tcf4^+/− mice [2]; [13]
  Self-Grooming/Repetitive Behavior: Tukey’s Multiple Comparison Test Summary: ns
Tcf4^+/− mice [2]; [14]
  Self-Grooming/Repetitive Behavior: Tukey’s Multiple Comparison Test Summary: ns
Tcf4^+/− mice [2]; [15]
  Self-Grooming/Repetitive Behavior: Tukey’s Multiple Comparison Test Summary: ns
Tcf4^+/− mice [2]; [16]
  Self-Grooming/Repetitive Behavior: Tukey’s Multiple Comparison Test Summary: ns
Tcf4^+/− mice [2]; [17]
  Self-Grooming/Repetitive Behavior: Tukey’s Multiple Comparison Test Summary: ns
Tcf4^+/− mice [2]; [18]
  Self-Grooming/Repetitive Behavior: Tukey’s Multiple Comparison Test Summary: ns
Tcf4^+/− mice [2]; [19]
  Self-Grooming/Repetitive Behavior: Tukey’s Multiple Comparison Test Summary: ns
Tcf4^+/− mice [2]; [20]
  Time spent self-grooming during a 10-minute test period: about the same amount of time as did WT mice treated with vehicle alone
Tcf4^+/− mice [3]; [4]
  Open Field (Hypoactivity): Tukey’s Multiple Comparison Test Summary: ns
Tcf4^+/− mice [3]; [5]
  Open Field (Hypoactivity): Tukey’s Multiple Comparison Test Summary: ns
Tcf4^+/− mice [3]; Tcf4^+/− + vehicle vs Tcf4^+/− + cG-2-AllylP 1 (200 mg/kg) [r21-22]
  Open Field (Hypoactivity): Tukey’s Multiple Comparison Test Summary: **** (**** = p < 0.00001)
Tcf4^+/− mice [3]; Tcf4^+/− + vehicle vs Tcf4^+/− + cG-2-AllylP (100 mg/kg) [r23-24]
  Open Field (Hypoactivity): Tukey’s Multiple Comparison Test Summary: **** (**** = p < 0.00001)
Tcf4^+/− mice [3]; [7]
  Open Field (Hypoactivity): Tukey’s Multiple Comparison Test Summary: **** (**** = p < 0.00001)
Tcf4^+/− mice [3]; [8]
  Open Field (Hypoactivity): Tukey’s Multiple Comparison Test Summary: **** (**** = p < 0.00001)
Tcf4^+/− mice [3]; Tcf4^+/− mice, 100 mg/kg
  Behavior Normalized to WildType Levels: Open Field: ✓
Tcf4^+/− mice [3]; [10]
  Relative distance travelled (mobility), open field: nearly identical mobility as did WT mice treated with vehicle alone
Tcf4^+/− mice [3]; Tcf4^+/− mice, 200 mg/kg
  Behavior Normalized to WildType Levels: Open Field: ✓
Tcf4^+/− mice [3]; [11]
  Relative distance travelled (mobility), open field: normalized this mild to moderate hypoactivity
Tcf4^+/− mice [3]; [12]
  Open Field (Hypoactivity): Tukey’s Multiple Comparison Test Summary: ns
Tcf4^+/− mice [3]; [13]
  Open Field (Hypoactivity): Tukey’s Multiple Comparison Test Summary: ns
Tcf4^+/− mice [3]; [14]
  Open Field (Hypoactivity): Tukey’s Multiple Comparison Test Summary: ns
Tcf4^+/− mice [3]; [15]
  Open Field (Hypoactivity): Tukey’s Multiple Comparison Test Summary: ns
Tcf4^+/− mice [3]; [16]
  Open Field (Hypoactivity): Tukey’s Multiple Comparison Test Summary: ns
Tcf4^+/− mice [3]; [17]
  Open Field (Hypoactivity): Tukey’s Multiple Comparison Test Summary: ns
Tcf4^+/− mice [3]; [18]
  Open Field (Hypoactivity): Tukey’s Multiple Comparison Test Summary: ns
Tcf4^+/− mice [3]; [19]
  Open Field (Hypoactivity): Tukey’s Multiple Comparison Test Summary: ns
Tcf4^+/− mice [3]; [20]
  Relative distance travelled (mobility), open field: slightly higher mobility than WT mice treated with vehicle
Tcf4^+/− mice [3]; [21]
  Relative distance travelled (mobility), open field: nearly the same mobility
